The assay has as its target T1, MAGE-A11:PCF11 interaction (GST-MAGE-A11 and FAM-PCF11_4) (Homo sapiens, UniProt P43364).
T1 construct: GST-MAGE-A11 MHD (human MAGE-A11 MHD amino acid 218-429); made in house; host or cells: E. coli BL21(DE3)
T1 sequence (P43364 218-429): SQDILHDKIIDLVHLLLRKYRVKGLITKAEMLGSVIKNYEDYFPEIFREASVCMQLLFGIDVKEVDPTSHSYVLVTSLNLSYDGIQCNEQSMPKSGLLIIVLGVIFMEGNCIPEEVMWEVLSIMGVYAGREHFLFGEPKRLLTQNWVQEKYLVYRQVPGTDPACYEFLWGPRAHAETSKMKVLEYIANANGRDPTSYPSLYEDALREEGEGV
In words: TR-FRET primary / single point screen at 15 µM. The class given is binding. In short, it runs like this: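 TR-FRET 520/490 nm emission ratio was read after 90 min at room temperature. Wells held 5 nM GST-MAGE-A11, 5 nM Tb-anti-GST, 200 nM FAM-PCF11_4 and 15 µM compound in Tris pH 7.5 buffer with MgCl2, BSA and DTT. %Inhibition was scaled to DMSO and minus-MAGE-A11 controls.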

Setting [1] is: single point TR-FRET screening of 797 quinoline compounds against MAGE-A11:PCF11.
The mark [2] stands for this setting: single point TR-FRET screening of quinoline compounds against MAGE-A11:PCF11, 15 µM.

Consider 46 molecules from article PMC7529893, “Structural basis for substrate recognition and chemical inhibition of oncogenic MAGE ubiquitin ligases” (Nature Communications, 2020).

Regarding `COc1ccc(N2CCN(c3c(S(=O)(=O)c4ccc(C)c(C)c4)cnc4ccc(F)cc34)CC2)cc1` [SJ000117073], the “percent inhibition (TR-FRET)” value under setting [1] is recorded as -13.2577.

`COc1ccc2nc3cc(Cl)ccc3c(NCCCNCc3c4ccccc4cc4ccccc34)c2c1` [SJ000361099]: the “percent inhibition (TR-FRET)” value under setting [2] was -3.728.

Take `CCCN(CCCNc1c2ccc(Cl)cc2nc2ccc(OC)cc12)Cc1sccc1C` [SJ000520921]: the “percent inhibition (TR-FRET)” value under setting [2] is on record as -83.8109. Turning to `O=S(=O)(c1ccc(F)cc1)c1cnc2ccc(Cl)cc2c1N1CCN(c2ccc(F)cc2)CC1` [SJ000117063], the “percent inhibition (TR-FRET)” value under setting [1] was -4.205. For the molecule `Clc1ccc2c(NCCCNCC3CCCCC3)ccnc2c1` [SJ000361102], under setting [2], the “percent inhibition (TR-FRET)” value was determined as 15.626. With `COc1ccc2ncc(S(=O)(=O)c3ccccc3)c(N3CCN(c4ccccc4F)CC3)c2c1` [SJ000315263], under setting [1], the “percent inhibition (TR-FRET)” value was -252.464. Consider `Clc1ccc2c(NC3CCN(CCCc4ccccc4)CC3)ccnc2c1` [SJ000523104], for which the “percent inhibition (TR-FRET)” value under setting [1] is listed as 20.6486. As to `CCCN(CCCNc1c2ccc(Cl)cc2nc2ccc(OC)cc12)Cc1cccc(OC)c1O` [SJ000520930], the “percent inhibition (TR-FRET)” value under setting [2] was -81.9559. As to `CCCN(CCCNc1ccnc2cc(C(F)(F)F)ccc12)Cc1nccs1` [SJ000575189], the “percent inhibition (TR-FRET)” value under setting [2] amounted to 8.665. For the molecule `CCCN(CCCNc1c2ccc(Cl)cc2nc2ccc(OC)cc12)Cc1ccc(C)s1` [SJ000520927], the “percent inhibition (TR-FRET)” value under setting [1] is on record as -124.818.

On to `CCCN(CCCNc1ccnc2cc(C(F)(F)F)ccc12)Cc1ccccc1C(=O)O` [SJ000523073], for which the “percent inhibition (TR-FRET)” value under setting [2] came out at 16.8563. With `COC(=O)CN1CCN(c2cc(C)nc3ccccc23)C(C)C1=O` (stereo not shown) [SJ000516812], the “percent inhibition (TR-FRET)” value under setting [1] is reported as 3.503. Consider `Clc1ccc2c(NCCCN(Cc3ccccc3)Cc3cccnc3Br)ccnc2c1` [SJ000520462], for which, under setting [2], the “percent inhibition (TR-FRET)” value is 9.715. In the case of `Cc1ccc(S(=O)(=O)c2cnc3ccc(F)cc3c2N2CCN(c3ccc(F)cc3)CC2)cc1` [SJ000117061], the “percent inhibition (TR-FRET)” value under setting [1] is -70.4952.

As to `CCc1ccc(S(=O)(=O)c2cnc3ccccc3c2N2CCN(c3ccc(OC)cc3)CC2)cc1` [SJ000117074], the “percent inhibition (TR-FRET)” value under setting [1] is on record as -11.204. As to `CCc1ccc2ncc(S(=O)(=O)c3ccc(Cl)cc3)c(N3CCN(CC)CC3)c2c1` [SJ000083968], the “percent inhibition (TR-FRET)” value under setting [1] is recorded as -19.1318. Same read-out and setting: then `Clc1ccc2c(NCCCCN(Cc3ccccc3)Cc3ccsc3)ccnc2c1` [SJ000312689], with 16.2962. With `CCCN(CCCNc1ccnc2cc(C(F)(F)F)ccc12)Cc1c(F)cccc1C(F)(F)F` [SJ000520481], under setting [2], the “percent inhibition (TR-FRET)” value is 11.4651. Still for that read-out and setting: then `Clc1ccc2c(NCCCNCc3nccs3)ccnc2c1` [SJ000521023], with 4.988.

As for `CC(C)(C)CCN(CCCCNc1ccnc2cc(Cl)ccc12)Cc1ccccc1` [SJ000357537], the “percent inhibition (TR-FRET)” value under setting [1] is reported as 34.5391. Regarding `CCOC(=O)c1cnc2c(CC)cccc2c1NCCCN1CCOCC1` [SJ000185196], under setting [2], the “percent inhibition (TR-FRET)” value is reported as -4.499.

For `CCCN(CCCNc1ccnc2cc(C(F)(F)F)ccc12)CCCc1ccccc1` [SJ000523080], the “percent inhibition (TR-FRET)” value under setting [2] is on record as 28.0024. On the same count and under the same terms, the value for `CCCN(CCCNc1ccnc2cc(Cl)ccc12)CC1CCOC1` (stereo not shown) [SJ000523016] was 9.6638.

On to `CCOC(=O)c1cnc2ccc(C(=O)O)cc2c1N1CCN(CCO)CC1` [SJ000280902], for which the “percent inhibition (TR-FRET)” value under setting [1] was -0.5958. As for `CCCN(CCCNc1ccnc2cc(C(F)(F)F)ccc12)Cc1cc(OC)ccc1O` [SJ000361263], under setting [2], the “percent inhibition (TR-FRET)” value came out at 25.2582.

Turning to `CCCN(CCCNc1ccnc2cc(Cl)ccc12)Cc1ccc(OC)cc1` [SJ000522756], the “percent inhibition (TR-FRET)” value under setting [2] was 19.1371. The same measure, in the same setting: the value for `CCCN(CCCNc1ccnc2cc(Cl)ccc12)Cc1cccnc1Br` [SJ000523006] was 13.3074. Consider `COC(=O)c1ccc(CNCCCNc2c3ccc(Cl)cc3nc3ccc(OC)cc23)cc1` [SJ000522957], for which, under setting [1], the “percent inhibition (TR-FRET)” value is given as -133.032.

For `CCCN(CCCCNc1ccnc2cc(Cl)ccc12)Cc1sccc1C` [SJ000311199], the “percent inhibition (TR-FRET)” value under setting [1] is given as 6.494. Turning to `CCCCN(CCCNc1ccnc2cc(Cl)ccc12)Cc1ccccc1` [SJ000357579], under setting [2], the “percent inhibition (TR-FRET)” value stood at 19.3068. As for `CCCN(CCCNc1c2ccc(Cl)cc2nc2ccc(OC)cc12)Cc1ccc(Br)o1` [SJ000520929], the “percent inhibition (TR-FRET)” value under setting [1] is -137.318. The same measure, in the same setting: the value for `COc1ccc2ncc(S(=O)(=O)c3ccc(C)c(C)c3)c(N3CCN(c4ccccc4F)CC3)c2c1` [SJ000117078] was -8.289. Take `CCCN(CCCNc1ccnc2cc(C(F)(F)F)ccc12)Cc1c(F)cccc1OC` [SJ000361262]: the “percent inhibition (TR-FRET)” value under setting [2] turned out to be 29.228. The same measure, in the same setting: then `CCCN(CCCNc1ccnc2cc(C(F)(F)F)ccc12)Cc1cnn(C)c1` [SJ000575182], with 15.6779. Consider `CCCN(CCCNc1ccnc2cc(C(F)(F)F)ccc12)Cc1ccc[nH]1` [SJ000361255], for which the “percent inhibition (TR-FRET)” value under setting [2] amounted to 30.6641. Still for that read-out and setting: then `CCCN(CCCNc1ccnc2cc(Cl)ccc12)Cc1cc(F)cc(F)c1O` [SJ000357597], with 15.9573; and `N#Cc1ccc(Cc2ccc3c(NCCCNCc4ccco4)ccnc3c2)cc1` [SJ000311302], with 20.4271. As for `CCCN(CCCNc1ccnc2cc(C(F)(F)F)ccc12)CC1CCCCC1` [SJ000361268], under setting [2], the “percent inhibition (TR-FRET)” value came out at 33.314. On the same count and under the same terms, the value for `CCCN(CCCNc1ccnc2cc(Cl)ccc12)Cc1ccc(C(=O)OC)cc1` [SJ000523042] was 16.7163; that for `CCCN(CCCNc1ccnc2cc(Cl)ccc12)Cc1cccc(C(F)(F)F)c1` [SJ000523013] was 17.481; that for `COc1ccc2nc3cc(Cl)ccc3c(NCCCNCc3c(Cl)ccc(Cl)c3Cl)c2c1` [SJ000522960] was -81.4922. Consider `CCC(CC)CN(CCCCNc1ccnc2cc(Cl)ccc12)Cc1ccccc1` [SJ000361195], for which the “percent inhibition (TR-FRET)” value under setting [1] was determined as 25.5382. Same read-out and setting: then `Fc1ccccc1CN(CCCCNc1ccnc2cc(Cl)ccc12)Cc1ccccc1` [SJ000361198], with 20.7772. Take `COc1ccc(CN(CCCNc2ccnc3cc(Cl)ccc23)Cc2ccccc2)cc1F` [SJ000520437]: under setting [2], the “percent inhibition (TR-FRET)” value is listed as 23.6478.

On to `O=S(=O)(c1ccccc1)c1cnc2ccc(F)cc2c1N1CCN(c2ccccc2F)CC1` [SJ000315166], for which, under setting [1], the “percent inhibition (TR-FRET)” value is given as -99.0552. Regarding `CCOC(=O)c1cnc2c(C)cc(C)cc2c1NCCN(C)C` [SJ000037396], the “percent inhibition (TR-FRET)” value under setting [1] worked out at 4.92.
